Eight compounds from PubChem BioAssay AID1963981 (Molecular Pharmacology Branch, DTP, NCI, 2024) can be followed below.

In this experiment the test system is 354836-022-R-J1-PDC multicell spheroid viability. The experiment is described as follows: Anticancer human tumor 354836-022-R-J1-PDC patient-derived head and neck squamous cell carcinoma cell line growth inhibition [PI3K]. Particulars: for viability, T/C: stronger effect = lower value. The text has this:
Combinatorial screen of targeted agents with the PI3K inhibitors inavolisib, alpelisib, duvelisib, and copanlisib in multi-cell type tumor spheroids
A high-throughput screen of multi-cell type tumor spheroids was designed to identify active combinations of targeted small molecules and PI3K pathway inhibitors. Complex spheroids include a stromal component modeled by human endothelial cells (HUVEC) and fibroblasts modeled by human mesenchymal stem cells (MSCs). The concentration ranges selected for each drug and investigational agent were based upon clinically achievable concentrations if the clinical Cmax of the agent was known.
Compounds. The drugs and investigational agents: inavolisib (NSC800729), alpelisib (NSC765974), duvelisib (NSC772469), copanlisib (NSC816437), ipatasertib (NSC767898), afuresertib (NSC778305), talazoparib (NSC767125), sapanisertib (NSC764658), selumetinib (NSC741078), tovorafenib (DAY101, NSC766906), vemurafenib (NSC761431), ravoxertinib (NSC781343), sotorasib (NSC818433), MRTX1133 (NSC 836407), abemaciclib (NSC 768073), palbociclib (NSC758247), venetoclax (NSC 766270), SY5609 (NSC837396), enzalutamide (NSC755605), and darolutamide (NSC825331), were obtained from the National Cancer Institute (NCI) Developmental Therapeutics Program Chemical Repository. The FDA-approved anticancer drug set is available from the NCI Developmental Therapeutics Program. […] The stock solutions were prepared in dimethyl sulfoxide (DMSO, Sigma-Aldrich, St. Louis, MO, cat. D2650) at 800-fold the tested concentration and stored at -70 degrees C prior to their use. All drugs and investigational agents were tested over a range starting from a high concentration at or near the clinical Cmax and decreasing in half-log increments. If the clinical Cmax for an agent had not been determined, the highest concentration tested was 10 microM.
Cell Culture. All cells were maintained in an incubator at 37 degrees C and 5% CO2 with 95% humidity. The PDC lines were cultured according to standard operating procedures established by the NCI PDMR (https://pdmr.cancer.gov/sops/default.htm). All PDCs were thawed and cultured in Matrigel-coated flasks prepared with a working solution of 1X Ham's F-12 nutrient mix, without supplementation (Invitrogen, Waltham, MA, cat. 11765054), 100 U/mL penicillin-streptomycin (Invitrogen, cat. 15140122), and 2.5% Matrigel (Corning Inc., Corning, NY, cat. 354248) for the first three passages. The 354836-022-R-J1-PDC, 475296-252-R-J1-PDC, and 997726-040-R-J2-PDC lines were cultured in 6A media, which includes advanced DMEM/F-12 (Thermo Fisher Scientific, cat. 12634028), 10 mM HEPES (Thermo Fisher Scientific, cat. 15630080), 1X GlutaMAX supplement (Thermo Fisher Scientific, cat. 35050061), 0.1 mg/mL primocin (InvivoGen, San Diego, CA, cat. ant-pm-2), 10% defined fetal bovine serum, heat inactivated (HyClone Laboratories Inc., Logan, UT, cat. SH30070.03HI), 50% L-WRN conditioned media (ATCC, cat. CRL-3276), 1.25 mM N-Acetyl-L-cysteine (Sigma-Aldrich, cat. A9165), 10 mM nicotinamide (Sigma-Aldrich, cat. N0636), 1X B-27 supplement (Thermo Fisher Scientific, cat. 17504044), 1X N-2 supplement (Thermo Fisher Scientific, cat. 17502048), and 10 microM Y-27632 dihydrochloride (Tocris Bioscience, Bristol, United Kingdom, cat. 1254). The 624824-186-R-J2-PDC line was cultured in 6C/Colon 1B media, which includes all 6A media components plus 50 ng/mL human EGF recombinant protein (Thermo Fisher Scientific, cat. PHG0311). […]

SMILES strings stand for the structures. pIC50: −log10 of the molar value. Several values for one entry are separate records, joined by “and”; a condition that tells them apart may be missing. Equal values may be shown once. Bounds are passed on as bounds.
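Also: spheroids exposed to agents for seven days before the viability read.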

As to `CC(C)NCC(C(=O)N1CCN(c2ncnc3c2C(C)CC3O)CC1)c1ccc(Cl)cc1` (stereo not drawn), the viability, T/C (usually the result in the treated group divided by that in the control group, in per cent) was 96.5% [middle of 4 runs] (compound 0.0316 µM); 71% [middle of 4 runs] (compound 0.1 µM); 54.1% [middle of 4 runs] (compound 0.316 µM); 24.7% [middle of 4 runs] (compound 1 µM); 18% [middle of 4 runs] (compound 3.16 µM); 14.2% [middle of 4 runs] (compound 10 µM). Moreover, the concentration for half-maximal inhibition (IC50) (usually the concentration that inhibits the measured activity by half) (curve of compound) was 319 nM [middle of 4 runs].
Take `CC(Cn1ccc(-c2ccc(C#N)c(Cl)c2)n1)NC(=O)c1cc(C(C)O)[nH]n1` (stereo not drawn): the viability, T/C is 108% [middle of 4 runs] (compound 0.0316 µM); 95.5% [middle of 4 runs] (compound 0.1 µM); 112% [middle of 4 runs] (compound 0.316 µM); 93.7% [middle of 4 runs] (compound 1 µM); 99.2% [middle of 4 runs] (compound 3.16 µM); 77.8% [middle of 4 runs] (compound 10 µM). Moreover, the pIC50 – broadly, the IC50 on a negative log10 scale, so that one unit is a factor of ten – (curve of compound) is less than 5.00.
As to `CC(Nc1ncnc2nc[nH]c12)c1cc2cccc(Cl)c2c(=O)n1-c1ccccc1` (stereo not drawn), the viability, T/C was 101% [middle of 8 runs] (compound 0.0316 µM); 104% [middle of 8 runs] (compound 0.1 µM); 99.3% [middle of 8 runs] (compound 0.316 µM); 97.6% [middle of 8 runs] (compound 1 µM); 92.8% [middle of 8 runs] (compound 3.16 µM); 94.6% [middle of 8 runs] (compound 10 µM). Also, the negative-log IC50 (pIC50) (compound alone, run of 06/13/2023) is less than 5.00.
With `CC1(C)CCC(CN2CCN(c3ccc(C(=O)NS(=O)(=O)c4ccc(NCC5CCOCC5)c([N+](=O)[O-])c4)c(Oc4cnc5[nH]ccc5c4)c3)CC2)=C(c2ccc(Cl)cc2)C1`, the viability, T/C was 104% [middle of 4 runs] (compound 0.0316 µM), 102% [middle of 4 runs] (compound 0.316 µM), 82.2% [middle of 4 runs] (compound 1 µM) and 72.4% [middle of 4 runs] (compound 3.16 µM).
With `CC1(C)CCC(Nc2ncc(C(F)(F)F)c(-c3c[nH]c4c(P(C)(C)=O)c(C#N)ccc34)n2)CN1` (stereo not drawn), the viability, T/C is, setting by setting: (compound 0.0316 µM) 21.9% [middle of 4 runs]; (compound 0.1 µM) 19.9% [middle of 4 runs]; (compound 0.316 µM) 20.8% [middle of 4 runs]; (compound 1 µM) 21.9% [middle of 4 runs]; (compound 3.16 µM) 32% [middle of 4 runs]; (compound 10 µM) 2.79% [middle of 4 runs]. Moreover, under “curve of compound”, the negative-log IC50 (pIC50) was greater than 7.50.
In the case of `CNC(=O)c1ccc(N2C(=S)N(c3ccc(C#N)c(C(F)(F)F)c3)C(=O)C2(C)C)cc1F`, the viability, T/C (compound 0.0316 µM) is 106% [middle of 4 runs]; the viability, T/C (compound 0.1 µM) is 102% [middle of 4 runs]; the viability, T/C (compound 0.316 µM) was 96.3% and 107% (2×) and 116%; the viability, T/C (compound 1 µM) is 100% [middle of 4 runs]; the viability, T/C (compound 3.16 µM) was 99.1% and 122% and 104% (2×); the viability, T/C (compound 10 µM) is 96.7% [middle of 4 runs]. The negative logarithm of the IC50 (pIC50) (curve of compound) is less than 5.00.
Consider `C[C@@H](NC(=O)c1ncnc(N)c1Cl)c1ncc(C(=O)Nc2cc(C(F)(F)F)c(Cl)cn2)s1`, for which the viability, T/C runs as follows: (compound 0.0316 µM) 105% [middle of 4 runs]; (compound 0.1 µM) 99.9% [middle of 4 runs]; (compound 0.316 µM) 99.3% [middle of 4 runs]; (compound 1 µM) 98.5% [middle of 4 runs]; (compound 3.16 µM) 105% [middle of 4 runs]; (compound 10 µM) 70.9% [middle of 4 runs]. Further, the pIC50 (curve of compound) is less than 5.00.
Regarding `Cn1nccc1Nc1nccc(-c2ccn(C(CO)c3ccc(Cl)c(F)c3)c(=O)c2)n1` (stereo not drawn), the viability, T/C reads like this: (compound 0.0316 µM) 107% [middle of 4 runs]; (compound 0.1 µM) 91.8% [middle of 4 runs]; (compound 0.316 µM) 110% [middle of 4 runs]; (compound 1 µM) 94.6% [middle of 4 runs]; (compound 3.16 µM) 106% [middle of 4 runs]; (compound 10 µM) 96.2% [middle of 4 runs]. For the same compound, the pIC50 (curve of compound) was less than 5.00.
